Data from patent US20130310374A1, “Substituted Imidazoquinoline Derivatives” (PIRAMAL ENTERPRISES LIMITED`, priority 2010, published 2013).

What was measured:
A2780 = assay: Cytotoxicity propidium iodide assay, A2780; type: cell-based; details: Homo sapiens; for inhibition at 1 µM: A2780, 1 μM, 48 hours, read-out: % Inhibition at 1 μM, C1a; for IC50: A2780 (ovarian), 48 hours treatment, read-out: IC50 Values in μM, C1a
Protocol: (§1) The assay was designed as in the reference, Anticancer Drugs, 2002, 13, 1-8, the disclosure of which is incorporated herein by reference for the teaching of the assay.
(§2) Cells from cell lines (ATCC) as mentioned in the table given below were seeded at a density of 3000 cells/well in a white opaque 96-well plate. Following incubation at 37° C./5% CO2 for a period of 18-24 hours, the cells were treated with various concentrations (stock solution was prepared in DMSO and subsequent dilutions were made in media as per ATCC guidelines) of the compounds of the present invention for a period of 48 hours. At the end of treatment, the culture medium was discarded, the cells were washed with 1×PBS and 200 μL of […] propidium iodide was added to each well. The plates were frozen at […] overnight. For analysis, the plates were warmed to RT, allowed to thaw and were read in PoleStar fluorimeter with the fluorescence setting. The percentage of viable cells in the non-treated set of wells was considered to be 100 and the percentage viability following treatment was calculated accordingly. IC50 values were calculated from graphs plotted using these percentages. IC50 values for certain compounds of present invention are depicted in Table 1 and % Inhibition of certain compounds of present invention are depicted in Table 2.

PC3 = assay: Cytotoxicity propidium iodide assay, PC3; type: cell-based, human; details: Homo sapiens, PC-3; for inhibition at 1 µM: PC3, 1 μM, 48 hours, read-out: % Inhibition at 1 μM, C2a; for IC50: PC3 (prostate), 48 hours treatment, read-out: IC50 Values in μM, C2a
Protocol: as §1, §2

| SMILES | inhibition at 1 µM (A2780) | inhibition at 1 µM (PC3) | IC50 (A2780) | IC50 (PC3) |
| --- | --- | --- | --- | --- |
| CC(C#N)n1c(=O)n(-c2ccc(C#N)nc2)c2c3cc(-c4cnc5ccccc5c4)ccc3ncc21 (stereo not drawn) [Example 52, 5-(3-(1-Cyanoethyl)-2-oxo-8-(quinolin-3-yl)-2,3-dihydro-1H-imidazo[4,5-c]quinolin-1-yl)picolinonitrile] | 36% | 12% |  |  |
| Cn1c(=O)n(-c2ccc(C(F)(F)F)nc2)c2c3cc(-c4cccnc4)ccc3ncc21 [Example 53, 3-Methyl-8-(pyridin-3-yl)-1-(6-(trifluoromethyl)pyridin-3-yl)-1H-imidazo[4,5-c]quinolin-2(3H)-one] |  |  | 0.55 µM | 0.75 µM |
| COc1ccc(-n2c(=O)n(CC#N)c3cnc4ccc(-c5cccnc5)cc4c32)cn1 [Example 21, 2-(1-(6-Methoxypyridin-3-yl)-2-oxo-8-(pyridin-3-yl)-1H-imidazo[4,5-c]quinolin-3(2H)-yl)acetonitrile] | 38% | 27% |  |  |
| COc1ccc(-n2c(=O)n(C)c3cnc4ccc(-c5cncc(C(F)(F)F)c5)cc4c32)cn1 [Example 22, 1-(6-Methoxypyridin-3-yl)-3-methyl-8-(5-(trifluoromethyl)pyridin-3-yl)-1H-imidazo[4,5-c] quinolin-2(3H)-one] | 83.1% | 67.8% |  |  |
| Cn1c(=O)n(-c2ccc(C#N)nc2)c2c3cc(-c4cnc(N)c(C(F)(F)F)c4)ccc3ncc21 [Example 45, 5-(8-(6-Amino-5-(trifluoromethyl)pyridin-3-yl)-3-methyl-2-oxo-2,3-dihydro-1H-imidazo[4,5-c]quinolin-1-yl)picolinonitrile] | 52% | 37% |  |  |
| N#CCn1c(=O)n(-c2ccc(C#N)nc2)c2c3cc(-c4cnc5ccccc5c4)ccc3ncc21 [Example 51, 5-(3-(Cyanomethyl)-2-oxo-8-(quinolin-3-yl)-2,3-dihydro-1H-imidazo[4,5-c]quinolin-1-yl)picolinonitrile] | 73% | 41% |  |  |
| COc1ccc(-n2c(=O)n(C)c3cnc4ccc(-c5cnc6ccccc6c5)cc4c32)c(C)n1 [Example 41, 1-(6-Methoxy-2-methylpyridin-3-yl)-3-methyl-8-(quinolin-3-yl)-1H-imidazo[4,5-c]quinolin-2(3H)-one] | 80% | 68% |  |  |
| COc1ccc(-n2c(=O)n(CC#N)c3cnc4ccc(-c5ccc(C(F)(F)F)nc5)cc4c32)c(C)n1 [Example 37, 2-(1-(6-Methoxy-2-methylpyridin-3-yl)-2-oxo-8-(6-(trifluoromethyl)pyridin-3-yl)-1H-imidazo[4,5-c]quinolin-3(2H)-yl)acetonitrile] | 70% | 49.5% |  |  |
| Cn1c(=O)n(CCN2CCOCC2)c2c3cc(-c4cnc(N)c(C(F)(F)F)c4)ccc3ncc21 [Example 69, 8-(6-Amino-5-(trifluoromethyl)pyridin-3-yl)-3-methyl-1-(2-morpholinoethyl)-1H-imidazo[4,5-c]quinolin-2(3H)-one] |  |  | 0.022 µM | 0.07 µM |
| Cn1c(=O)n(-c2ccc(C(C)(C)C#N)nc2)c2c3cc(-c4cncc5ccccc45)ccc3ncc21 [Example 6, 2-(5-(8-(Isoquinolin-4-yl)-3-methyl-2-oxo-2,3-dihydro-1H-imidazo[4,5-c]quinolin-1-yl)pyridin-2-yl)-2-methylpropanenitrile] | 85.3% | 69.5% |  |  |
| Cn1c(=O)n(-c2ccc(C(F)(F)F)nc2)c2c3cc(-c4ccc(C(F)(F)F)nc4)ccc3ncc21 [Example 56, 3-Methyl-1,8-bis(6-(trifluoromethyl)pyridin-3-yl)-1H-imidazo [4,5-c]quinolin-2(3H)-one] | 57% | 32% |  |  |
| CC(C#N)n1c(=O)n(-c2ccc(C#N)nc2)c2c3cc(-c4cccnc4)ccc3ncc21 (stereo not drawn) [Example 43, 5-(3-(1-Cyanoethyl)-2-oxo-8-(pyridin-3-yl)-2,3-dihydro-1H-imidazo[4,5-c]quinolin-1-yl)picolinonitrile] | 8% | 13% |  |  |
